According to article PMC12037410, “Pharmacological targeting of BMAL1 modulates circadian and immune pathways” (Nature Chemical Biology, 2025):
Residues, ends and D or L forms follow the SMILES beside them.

target: BMAL1 (Homo sapiens, UniProt O00327); design: PASB domain (residues 338–449); Protein thermal shift (PTS) fragment screen on recombinant human BMAL1(PASB), shift of melting temperature; details: binder
Sequence (O00327 338-449): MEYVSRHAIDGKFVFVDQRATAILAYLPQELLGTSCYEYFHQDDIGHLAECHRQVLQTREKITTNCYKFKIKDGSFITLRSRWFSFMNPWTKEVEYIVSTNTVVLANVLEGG

Structure (SMILES) | Bmal1(PASB) dTmB
NCCc1ccc(S(N)(=O)=O)cc1 [Prestw-Frag-1076, Compound 338] | -0.53

same assay, conditions: dTmB; binder

Structure (SMILES) | Bmal1(PASB) dTmB [°C]
CN1[C@@H]2CC[C@H]1CC(O)C2 (some centres unmarked) [Prestw-Frag-0608, Compound 128] | -0.41
CC(C)(C)NCC(O)COc1ccccc1C1CCCC1 (centres unmarked) [Prestw-Frag-0674, Compound 468] | -1.95
O=c1ccc2ccccc2o1 [Prestw-Frag-1000, Compound 307] | -0.26
Nc1cc2ccccc2oc1=O [Prestw-Frag-1001, Compound 197] | 0.68
Cc1cc(-c2ccccc2)nnc1N [Prestw-Frag-1003, Compound 243] | -0.88
NC(=O)NS(=O)(=O)c1ccccc1 [Prestw-Frag-1006, Compound 100] | 0.09
CC(=O)Nc1nncs1 [Prestw-Frag-1008, Compound 401] | -0.09
Nc1nncs1 [Prestw-Frag-1009, Compound 188] | -0.33
COC(=O)C(c1ccccc1)c1ccccc1 [Prestw-Frag-1013, Compound 353] | -1.32
c1ccc2c3c([nH]c2c1)CNCC3 [Prestw-Frag-1014, Compound 154] | -0.81
Cc1cc(C(C)(C)CC(C)(C)C)ccc1O [Prestw-Frag-1016, Compound 351] | 0.69
C[N+](C)(CCO)Cc1ccccc1 [Prestw-Frag-1017, Compound 159] | -0.27
NC(=O)Cc1cccs1 [Prestw-Frag-1019, Compound 237] | -0.24
NCCCCc1ccccc1 [Prestw-Frag-1031, Compound 371] | -0.34
COc1ccc(Cc2ccc(OC)cc2)cc1 [Prestw-Frag-1033, Compound 354] | -0.11
NCc1c(N)ccc(Cl)c1Cl [Prestw-Frag-1039, Compound 337] | 0.01
O=C(O)c1ccccc1O [Prestw-Frag-1045, Compound 55] | -0.68
CCC(=O)NC1=NC=NC2=NC=NC21 (centres unmarked) [Prestw-Frag-1047, Compound 47] | -0.65
Nc1nc2ccccc2n1Cc1ccc(F)cc1 [Prestw-Frag-1050, Compound 460] | -1.64
COc1ccc(CCN2CCC(N)CC2)cc1 [Prestw-Frag-1051, Compound 427] | -0.58
CC(C)(Oc1ccccc1)C(=O)O [Prestw-Frag-1053, Compound 221] | 0.07

Structure (SMILES) | Bmal1(PASB) dTmB [°C]
Nc1ccc[nH]c1=O [Prestw-Frag-1060, Compound 123] | -2.04
COc1cc2c(cc1O)CCN[C@H]2C [Prestw-Frag-1063, Compound 388] | -0.57
COc1ccc(CCN)cc1O [Prestw-Frag-1064, Compound 320] | -0.32
O=[N+]([O-])c1ccc(CO)cc1 [Prestw-Frag-1071, Compound 105] | -0.41
CCC1=C(C)CN(C(=O)NCCc2ccccc2)C1=O [Prestw-Frag-1075, Compound 420] | -0.68
CC(=O)c1cc(Cl)ccc1O [Prestw-Frag-1083, Compound 280] | -0.22
O=c1[nH]c2ccccc2o1 [Prestw-Frag-1087, Compound 245] | -0.27
CC(=O)c1ccc(N2CCNCC2)c(F)c1 [Prestw-Frag-1094, Compound 141] | -0.42
Cc1ncsc1CCO [Prestw-Frag-1098, Compound 189] | -0.60
NC(=O)[C@H](N)c1ccccc1 [Prestw-Frag-1099, Compound 271] | -0.22
OC(c1ccccc1)c1ccc(Cl)cc1 (centres unmarked) [Prestw-Frag-1106, Compound 474] | -2.07
c1ccc(N2CCNCC2)nc1 [Prestw-Frag-1110, Compound 364] | -0.48
COC(=O)c1scc(C)c1N [Prestw-Frag-1111, Compound 362] | -0.95
CCN(Cc1ccccc1)c1ccccc1 [Prestw-Frag-1121, Compound 375] | -1.19
OC(c1ccccc1)c1ccccc1 [Prestw-Frag-1122, Compound 454] | -1.61
NCC(CC(=O)O)c1ccccc1 (centres unmarked) [Prestw-Frag-1125, Compound 234] | -0.06
O=C(O)CCc1ccc(Cl)cc1 [Prestw-Frag-1126, Compound 340] | -0.19
Cc1oncc1C(N)=O [Prestw-Frag-1128, Compound 133] | -0.10
Cc1c(O)c2ccccc2oc1=O [Prestw-Frag-1130, Compound 324] | 0.05
O=c1cc(O)c2ccccc2o1 [Prestw-Frag-1131, Compound 301] | 0.28
COc1ccc2ccncc2c1 [Prestw-Frag-1133, Compound 321] | -1.08

Structure (SMILES) | Bmal1(PASB) dTmB [°C]
Cn1c(=O)[nH]c2nc[nH]c2c1=O [Prestw-Frag-1138, Compound 38] | -0.59
CNC(C)(C)Cc1ccccc1 [Prestw-Frag-1141, Compound 101] | -0.69
COc1cc(N)ncn1 [Prestw-Frag-1154, Compound 185] | -0.03
Oc1cccc2c1CCCC2 [Prestw-Frag-1156, Compound 412] | -1.05
Cc1nnc(N)s1 [Prestw-Frag-1161, Compound 49] | -1.77
C(=C\c1ccccc1)/CN1CCNCC1 [Prestw-Frag-1163, Compound 295] | -0.92
c1ccc2[nH]c(CN3CCCC3)nc2c1 [Prestw-Frag-1164, Compound 180] | -0.18
COc1ccc(N)nn1 [Prestw-Frag-1167, Compound 140] | -0.58
OC(Cn1ccnc1)c1ccc(Cl)cc1Cl (centres unmarked) [Prestw-Frag-1182, Compound 411] | -0.85
COc1cc2ccncc2cc1OC [Prestw-Frag-1183, Compound 290] | -1.26
Nc1ccc(Cl)nn1 [Prestw-Frag-1184, Compound 263] | -0.26
CN1CCC[C@H]1c1cccnc1 [Prestw-Frag-1187, Compound 13] | -0.52
Cc1c(N)cccc1C(F)(F)F [Prestw-Frag-1189, Compound 334] | -0.15
O=C(O)c1cccnc1Nc1ccccc1 [Prestw-Frag-1191, Compound 63] | 0.02
c1ccc(C(CCN2CCCCC2)c2ccccc2)cc1 [Prestw-Frag-1193, Compound 402] | -2.05
CC(Oc1ccccc1)C(N)=O (centres unmarked) [Prestw-Frag-1200, Compound 240] | -0.43
CN1CCN(c2nccc(N)n2)CC1 [Prestw-Frag-1204, Compound 238] | -0.40
CS(=O)(=O)c1ccc(N)cc1 [Prestw-Frag-1214, Compound 111] | -0.40
COc1cccc2c1CCCC2=O [Prestw-Frag-1236, Compound 356] | -1.28
Oc1ccc(-c2ccc(F)cc2F)cc1 [Prestw-Frag-1237, Compound 467] | -0.75
O=C(O)c1cccc(-c2ccc(F)cc2F)c1 [Prestw-Frag-1238, Compound 368] | -0.92

Structure (SMILES) | Bmal1(PASB) dTmB [°C]
O=C(O)c1cc(-c2ccc(F)cc2)ccc1O [Prestw-Frag-1239, Compound 277] | -1.13
O=C(O)c1cc(-c2ccccc2)ccc1O [Prestw-Frag-1240, Compound 74] | -0.48
CC(C)C1NCCc2c1[nH]c1ccccc21 (centres unmarked) [Prestw-Frag-1264, Compound 134] | -1.09
NC1=NCCN1 [Prestw-Frag-1268, Compound 246] | -0.47
COc1cc2c(cc1OC)C(C)N(C)CC2 (centres unmarked) [Prestw-Frag-1273, Compound 218] | -0.29
C[C@H](N)C(=O)N1CCC[C@H]1C(=O)O [Prestw-Frag-1275, Compound 264] (H-Ala-Pro-OH) | -0.70
OCc1cc2ccccc2[nH]1 [Prestw-Frag-1297, Compound 419] | 0.70
CCc1cccc2c(CCO)c[nH]c12 [Prestw-Frag-1299, Compound 129] | -0.11
OCCn1ccnc1 [Prestw-Frag-1303, Compound 120] | 0.13
C[C@H]1NC(=O)NC1=O [Prestw-Frag-1311, Compound 224] | -0.36
COc1ccc(C(=O)O)cc1N1CCCC1 [Prestw-Frag-1313, Compound 40] | -0.37
O=C(O)c1ccccc1Nc1cccc(Cl)c1 [Prestw-Frag-1319, Compound 28] | -2.88
Cc1cccc(Nc2ccccc2C(=O)O)c1 [Prestw-Frag-1320, Compound 17] | -0.74
Nc1cccc(C(F)(F)F)c1 [Prestw-Frag-1322, Compound 231] | 0.29
Fc1ccc(C(c2ccc(F)cc2)N2CCNCC2)cc1 [Prestw-Frag-1323, Compound 452] | -2.55
CN1CCN(C(c2ccccc2)c2ccccc2)CC1 [Prestw-Frag-1325, Compound 405] | -0.51
COc1ccccc1OCCCO [Prestw-Frag-1335, Compound 370] | 4.16
OCC(O)COc1ccccc1 (centres unmarked) [Prestw-Frag-1337, Compound 306] | 0.63
COc1ccccc1OCCO [Prestw-Frag-1338, Compound 363] | 0.76
CCC(C(=O)OCCN(CC)CC)c1ccccc1 (centres unmarked) [Prestw-Frag-1343, Compound 396] | -1.01
OC(c1ccc(Cl)cc1)c1ccccn1 (centres unmarked) [Prestw-Frag-1346, Compound 414] | -1.29

same assay, conditions: dTmB; binder; Bmal1(PASB) dTmB

Structure (SMILES) | Bmal1(PASB) dTmB [°C]
CC1=NN(c2ccccc2)C(=O)C1 [Prestw-Frag-1028, Compound 259] | 0.76
